≈ marks a conversion by molar mass, not a printed value.
Experiments:
Format in all cases: functional
Pyricularia oryzae [1] = test: Fungicidal activity against Magnaporthe oryzae by agar dilution method
Pyricularia oryzae [2] = test: Fungicidal activity against Magnaporthe oryzae in rice seedlings assessed as control of rice blast at 500 ppm by preventive foliar treatment
Nakataea oryzae = test: Fungicidal activity against Magnaporthe salvinii by agar dilution method
Pyricularia oryzae [3] = test: Fungicidal activity against Magnaporthe oryzae in rice seedlings assessed as control of rice blast at 500 ppm by curative foliar treatment
Podosphaera fuliginea [4] = test: Fungicidal activity against Podosphaera fuliginea in cucumber assessed as control of cucumber powdery mildew at 62.5 ppm measured after 7 days of inoculation
Podosphaera fuliginea [5] = test: Fungicidal activity against Podosphaera fuliginea in cucumber assessed as control of cucumber powdery mildew at 125 ppm measured after 10 days of inoculation
Podosphaera fuliginea [6] = test: Fungicidal activity against Podosphaera fuliginea in cucumber assessed as control of cucumber powdery mildew at 125 ppm measured after 7 days of inoculation
Podosphaera fuliginea [7] = test: Fungicidal activity against Podosphaera fuliginea in cucumber assessed as control of cucumber powdery mildew at 62.5 ppm measured after 10 days of inoculation

For `Cc1cc(C)n(-c2ccc3ccccc3n2)n1`, the MIC (Pyricularia oryzae [1]) was 100 µg/mL (≈ 448 µM), the Activity (Pyricularia oryzae [2]) was 31% and the MIC (Nakataea oryzae) was 25 µg/mL (≈ 112 µM). The Activity (Pyricularia oryzae [3]) was 60%.

Compound `Cc1cc(C)n(-c2cc(C)c3ccccc3n2)n1` has an MIC (Pyricularia oryzae [1]) of over 100 µg/mL, an Activity (Pyricularia oryzae [2]) of 81% and an MIC (Nakataea oryzae) of over 100 µg/mL. For the same compound, the Activity (Pyricularia oryzae [3]) was 69%.

`Cc1cc(C)nc(-n2ncc3ccccc32)n1` showed an MIC (Pyricularia oryzae [1]) of 50 µg/mL (≈ 223 µM), an Activity (Pyricularia oryzae [2]) of 31% and an MIC (Nakataea oryzae) of 25 µg/mL (≈ 111 µM). The Activity (Pyricularia oryzae [3]) was 96%.

Compound `Cc1cc(C)nc(-n2cncn2)n1` has an MIC (Pyricularia oryzae [1]) of over 100 µg/mL, an Activity (Pyricularia oryzae [2]) of 31% and an MIC (Nakataea oryzae) of over 100 µg/mL. It also gave an Activity (Pyricularia oryzae [3]) of 0%.

With `Cc1cc(C)nc(-n2nc(C)c(Br)c2C)n1` the MIC (Pyricularia oryzae [1]) was 50 µg/mL (≈ 178 µM), the Activity (Pyricularia oryzae [2]) was 65% and the MIC (Nakataea oryzae) was 50 µg/mL (≈ 178 µM). The Activity (Pyricularia oryzae [3]) was 96%.

`CCCCc1c(C)nc(N(C)C)nc1O` [DIMETHIRIMOL] gave an Activity (Podosphaera fuliginea [4]) of 100%, an Activity (Podosphaera fuliginea [5]) of 100% and an Activity (Podosphaera fuliginea [6]) of 100%. For the same compound, the Activity (Podosphaera fuliginea [7]) was 100%.

Work on `Cc1cc(C)nc(-n2nc(C)nc2C)n1` yielded an MIC (Pyricularia oryzae [1]) of over 100 µg/mL, an Activity (Pyricularia oryzae [2]) of 81% and an MIC (Nakataea oryzae) of over 100 µg/mL. For the same compound, the Activity (Pyricularia oryzae [3]) was 0%.

Compound `CCCc1cc(CCC)n(-c2nc(C)cc(C)n2)n1` has an MIC (Pyricularia oryzae [1]) of 12.5 µg/mL (≈ 48.4 µM), an Activity (Pyricularia oryzae [2]) of 40% and an MIC (Nakataea oryzae) of 6.25 µg/mL (≈ 24.2 µM). The Activity (Pyricularia oryzae [3]) was 100%.

With `Cc1cc(C)n(C2=NS(=O)(=O)c3ccccc32)n1` the MIC (Pyricularia oryzae [1]) was over 100 µg/mL, the Activity (Pyricularia oryzae [2]) was 31% and the MIC (Nakataea oryzae) was over 100 µg/mL. The Activity (Pyricularia oryzae [3]) was 0%.

`Cc1cc(C)nc(-n2ccc(C)n2)n1` gave an MIC (Pyricularia oryzae [1]) of over 100 µg/mL, an Activity (Pyricularia oryzae [2]) of 69% and an MIC (Nakataea oryzae) of over 100 µg/mL. For the same compound, the Activity (Pyricularia oryzae [3]) was 69%.

Compound `Cc1cc(C)n(-c2nc3ccccc3s2)n1` has an MIC (Pyricularia oryzae [1]) of over 100 µg/mL, an Activity (Pyricularia oryzae [2]) of 40% and an MIC (Nakataea oryzae) of over 100 µg/mL. It also gave an Activity (Pyricularia oryzae [3]) of 31%.

For `Cc1cc(C)nc(-n2nc(C(F)(F)F)cc2C(F)(F)F)n1`, the MIC (Pyricularia oryzae [1]) was over 100 µg/mL, the Activity (Pyricularia oryzae [2]) was 51% and the MIC (Nakataea oryzae) was over 100 µg/mL. It also gave an Activity (Pyricularia oryzae [3]) of 31%.

In the case of `Cc1cc(C)n(-c2nc(O)nc(O)n2)n1`, the MIC (Pyricularia oryzae [1]) is reported as over 100 µg/mL, the MIC (Nakataea oryzae) is reported as over 100 µg/mL and the Activity (Pyricularia oryzae [3]) is reported as 31%.

`CCc1cc(C)n(-c2nc(C)cc(C)n2)n1` showed an MIC (Pyricularia oryzae [1]) of 50 µg/mL (≈ 231 µM), an Activity (Pyricularia oryzae [2]) of 31% and an MIC (Nakataea oryzae) of 50 µg/mL (≈ 231 µM). The Activity (Pyricularia oryzae [3]) was 100%.

`CCOC(=O)c1cc(C)nn1-c1nc(C)cc(C)n1` showed an MIC (Pyricularia oryzae [1]) of over 100 µg/mL, an Activity (Pyricularia oryzae [2]) of 0% and an MIC (Nakataea oryzae) of over 100 µg/mL. The Activity (Pyricularia oryzae [3]) was 0%.

Work on `CCc1cc(CC)n(-c2nccc(C)n2)n1` yielded an MIC (Pyricularia oryzae [1]) of 25 µg/mL (≈ 116 µM), an Activity (Pyricularia oryzae [2]) of 59% and an MIC (Nakataea oryzae) of 25 µg/mL (≈ 116 µM). For the same compound, the Activity (Pyricularia oryzae [3]) was 100%.

`Cc1cc(C)n(-c2nc3ccccc3c(=O)[nH]2)n1` gave an MIC (Pyricularia oryzae [1]) of 0.78 µg/mL (≈ 3.25 µM), an Activity (Pyricularia oryzae [2]) of 40% and an Activity (Pyricularia oryzae [3]) of 85%.

Work on `CCCc1c(C)nn(-c2nc(C)cc(C)n2)c1C` yielded an MIC (Pyricularia oryzae [1]) of 25 µg/mL (≈ 102 µM), an Activity (Pyricularia oryzae [2]) of 90% and an MIC (Nakataea oryzae) of 12.5 µg/mL (≈ 51.2 µM). For the same compound, the Activity (Pyricularia oryzae [3]) was 98%.

Work on `Cc1cc(C)n(-c2ncccn2)n1` yielded an MIC (Pyricularia oryzae [1]) of over 100 µg/mL, an Activity (Pyricularia oryzae [2]) of 78% and an MIC (Nakataea oryzae) of over 100 µg/mL. The Activity (Pyricularia oryzae [3]) was 73%.

`Cc1cc(C)nc(-n2nc3c(c2C)CCCC3)n1` gave an MIC (Pyricularia oryzae [1]) of 12.5 µg/mL (≈ 51.6 µM), an Activity (Pyricularia oryzae [2]) of 84% and an MIC (Nakataea oryzae) of 12.5 µg/mL (≈ 51.6 µM). It also gave an Activity (Pyricularia oryzae [3]) of 99%.

`Cc1cc(C)nc(-n2nc(C(F)(F)F)cc2-c2ccccc2)n1` gave an MIC (Pyricularia oryzae [1]) of 100 µg/mL (≈ 314 µM), an Activity (Pyricularia oryzae [2]) of 74% and an MIC (Nakataea oryzae) of over 100 µg/mL. For the same compound, the Activity (Pyricularia oryzae [3]) was 53%.

`Cc1cc(C)nc(-n2nc(C)cc2C(F)(F)F)n1` gave an MIC (Pyricularia oryzae [1]) of over 100 µg/mL, an Activity (Pyricularia oryzae [2]) of 53% and an MIC (Nakataea oryzae) of over 100 µg/mL. For the same compound, the Activity (Pyricularia oryzae [3]) was 0%.

`CCCCc1c(C)nc(NCC)[nH]c1=O` [ETHIRIMOL] showed an Activity (Podosphaera fuliginea [4]) of 100%, an Activity (Podosphaera fuliginea [5]) of 100% and an Activity (Podosphaera fuliginea [6]) of 100%. It also gave an Activity (Podosphaera fuliginea [7]) of 100%.

Compound `Cc1cc(C)nc(-n2cccn2)n1` has an MIC (Pyricularia oryzae [1]) of over 100 µg/mL, an Activity (Pyricularia oryzae [2]) of 41% and an MIC (Nakataea oryzae) of over 100 µg/mL. For the same compound, the Activity (Pyricularia oryzae [3]) was 40%.

With `Cc1cc(C)n(-c2ccc(O)nn2)n1` the MIC (Pyricularia oryzae [1]) was 100 µg/mL (≈ 526 µM), the Activity (Pyricularia oryzae [2]) was 29% and the MIC (Nakataea oryzae) was over 100 µg/mL. It also gave an Activity (Pyricularia oryzae [3]) of 0%.

`CCc1cc(C)n(-c2nccc(C)n2)n1` showed an MIC (Pyricularia oryzae [1]) of 25 µg/mL (≈ 124 µM), an Activity (Pyricularia oryzae [2]) of 84% and an MIC (Nakataea oryzae) of 50 µg/mL (≈ 247 µM). The Activity (Pyricularia oryzae [3]) was 98%.

With `Cc1cc(C)nc(-n2nc(-c3ccccc3)cc2-c2ccccc2)n1` the MIC (Pyricularia oryzae [1]) was over 100 µg/mL, the Activity (Pyricularia oryzae [2]) was 31% and the MIC (Nakataea oryzae) was over 100 µg/mL. The Activity (Pyricularia oryzae [3]) was 40%.

`Cc1cc(C)nc(-n2nc(C)c(C)c2C)n1` showed an MIC (Pyricularia oryzae [1]) of 100 µg/mL (≈ 462 µM), an Activity (Pyricularia oryzae [2]) of 81% and an MIC (Nakataea oryzae) of 50 µg/mL (≈ 231 µM). It also gave an Activity (Pyricularia oryzae [3]) of 99%.

With `Cc1cc(C)n(-c2nc(C)c(C)c(C)n2)n1` the MIC (Pyricularia oryzae [1]) was 50 µg/mL (≈ 231 µM), the Activity (Pyricularia oryzae [2]) was 65% and the MIC (Nakataea oryzae) was 100 µg/mL (≈ 462 µM). For the same compound, the Activity (Pyricularia oryzae [3]) was 78%.

For `Cc1cc(C)nc(-n2nc(C)c(Cl)c2C)n1`, the MIC (Pyricularia oryzae [1]) was 50 µg/mL (≈ 211 µM), the Activity (Pyricularia oryzae [2]) was 29% and the MIC (Nakataea oryzae) was 50 µg/mL (≈ 211 µM). It also gave an Activity (Pyricularia oryzae [3]) of 99%.

Compound `Cc1cc(C)n(-c2nc(C)c(Cl)c(C)n2)n1` has an MIC (Pyricularia oryzae [1]) of 50 µg/mL (≈ 211 µM), an Activity (Pyricularia oryzae [2]) of 94% and an MIC (Nakataea oryzae) of 25 µg/mL (≈ 106 µM). For the same compound, the Activity (Pyricularia oryzae [3]) was 100%.

In the case of `Cc1cc(C)nc(-n2ccnc2)n1`, the MIC (Pyricularia oryzae [1]) is reported as over 100 µg/mL, the Activity (Pyricularia oryzae [2]) is reported as 51% and the MIC (Nakataea oryzae) is reported as over 100 µg/mL. The Activity (Pyricularia oryzae [3]) was 0%.

Source: ChEMBL document CHEMBL3045726, “Fungicidal Activity of Pyrazolylpyrimidines” (1990)
